System: Langerhans cells (LCs)
Test: Migration of LCs through Matrigel in a two-compartment culture chamber (DNSB-sensitized)
Type: cell-based, human
Conditions: for LC migration index: 18 h at 37° C., control cells fixed at 1
Description: Suspensions of epidermal cells were obtained by enzyme treatment (0.05% trypsin, for 18 h at +4° C.) of fragments of normal human skin derived from plastic surgery.
D-sphingosine was diluted in ethanol so as to obtain a stock solution at 5×10^−3 M. The D-sphingosine was used at a concentration of 2.5 μM, the dilution carried out in RPMI containing 1% of bovine serum albumin (RPMI-BSA).
A peptide extract of lupin was used as MMP inhibitor. It is the peptide extract LU105 from Laboratoires Pharmascience.
The cells were pre-incubated at 37° C. for 60 min in the presence of LU105, before adding to the medium the hapten DNSB as sensitizing agent.
As sensitizing agent, DNSB (Sigma Aldrich) was used, the soluble form of DNCB (dinitrochlorobenzene), and was solubilized in RPMI-BSA and used at a concentration of 50 μM.
A two-compartment culture chamber system (Falcon, Becton Dickinson, France) was used. The upper compartment is separated from the lower compartment by a membrane with a porosity of 8 μm, onto which are deposited 50 μg/cm^2 of Matrigel. The membrane is then covered with proteins, forming a film equivalent to a basal membrane (laminin, collagen IV, nidogen, entactin, heparan sulfate proteoglycans). The cells taken up in the RPMI-BSA medium alone or in the presence of the various products are placed in the upper compartment. Normal human fibroblast culture supernatant is added to the lower compartment. After incubation for 18 h at 37° C., the number of living cells which have crossed the Matrigel and are in the lower compartment is counted under a microscope (the LCs are easily identifiable by their dendritic shape). Each assay is carried out in triplicate.

CCCCCCCCCCCCC/C=C/[C@@H](O)[C@@H](N)CO (relative stereo) [D-sphingosine, D-erythro-1,3-dihydroxy-2-amino-4-trans-octadecene]
effect on the LC migration induced by DNSB (in words) (D-sphingosine 2.5 μM): significantly inhibits | LC migration index (DNSB+D-sphingosine (2.5 μM)): 1.15

O=[N+]([O-])c1ccc(S(=O)(=O)O)c([N+](=O)[O-])c1 [DNSB, reference compound]
LC migration index (cells sensitized with the hapten DNSB (50 μM) alone): 1.61 | increase of LC migration compared to the normal unstimulated cells (control cells) (treatment with the hapten DNSB alone): 61%

Reference: patent publication US20080221017A1, “Pharmaceutical or cosmetic composition and use of a PKC inhibitor with an MMP inhibitor for inhibiting langerhans cell migration” (Laboratoires Expanscience, priority 2000, published 2008)
